# Experimental data as given in ChEMBL document CHEMBL1201862, “PubChem BioAssay data set” (2004).
#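 A five-concentration, 48-hour dose response in 96-well plates underlies each endpoint, interpolated linearly between surrounding concentrations. At the GI50, growth is halved.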 The source made the active and inactive calls. Rule as the data show it: active = GI50 up to about 1.1 µM and inactive = higher.
# Columns and labels:
# Assay in all cases: DTP human tumour cell line panel, 48 h
# HOP-62 = system: HOP-62
# Hs-578T = system: Hs-578T
# EKVX = system: EKVX
# CCRF-CEM = system: CCRF-CEM
# HCT-15 = system: HCT-15
# SK-MEL-5 = system: SK-MEL-5
# SR = system: SR
# A549 = system: A549
# NCI/ADR-RES = system: NCI/ADR-RES
# OVCAR-3 = system: OVCAR-3
# UACC-62 = system: UACC-62
# HL-60 = system: HL-60
# MDA-MB-435 = system: MDA-MB-435
# SN12C = system: SN12C
# Malme-3M = system: Malme-3M
# HT-29 = system: HT-29
# RPMI-8226 = system: RPMI-8226
# U-251 = system: U-251
# M14 = system: M14
# SF-539 = system: SF-539
SMILES,GI50 (HOP-62),GI50 (Hs-578T),GI50 (EKVX),GI50 (CCRF-CEM),GI50 (HCT-15),GI50 (SK-MEL-5),GI50 (SR),GI50 (A549),GI50 (NCI/ADR-RES),GI50 (OVCAR-3),GI50 (UACC-62),GI50 (HL-60),GI50 (MDA-MB-435),GI50 (SN12C),GI50 (Malme-3M),GI50 (HT-29),GI50 (RPMI-8226),GI50 (U-251),GI50 (M14),GI50 (SF-539)
Cc1ccc(N2C(=O)C(=O)N(/N=C3\C(=O)Nc4ccccc43)C2=S)cc1,> 100 µM (inactive),> 100 µM (inactive),> 100 µM (inactive),7.96 µM (inactive),39.8 µM,41.2 µM (inactive),38.7 µM (inactive),> 100 µM (inactive),28.8 µM (inactive),64.4 µM (inactive),92.9 µM (inactive),0.0998 µM (active),36.6 µM (inactive),> 100 µM (inactive),> 100 µM (inactive),58.6 µM (inactive),40.6 µM (inactive),26.3 µM (inactive),> 100 µM (inactive),> 100 µM (inactive)
CC(ON(C(c1ccccc1)C(C)C)C(C)(C)C)c1ccccc1 (stereo not given),19.4 µM (inactive),29 µM (inactive),15.4 µM (inactive),19.1 µM (inactive),61.8 µM,14.4 µM (inactive),23 µM (inactive),29.6 µM (inactive),23.1 µM (inactive),16.4 µM (inactive),15.9 µM (inactive),18.7 µM (inactive),25.5 µM (inactive),16.8 µM (inactive),38.3 µM (inactive),18.9 µM (inactive),29.5 µM (inactive),17 µM (inactive),22.7 µM (inactive),21.6 µM (inactive)
O=C1C2CCN(CC2)C1CN1CCOCC1 (stereo not given),18.5 µM (inactive),29 µM (inactive),17.8 µM (inactive),6.98 µM (inactive),2.18 µM,17.1 µM (inactive),6.1 µM (inactive),19.7 µM (inactive),1.96 µM (inactive),2.14 µM (inactive),16.1 µM (inactive),2.74 µM (inactive),15.5 µM (inactive),4.05 µM (inactive),1.8 µM (inactive),7.73 µM (inactive),2.13 µM (inactive),11 µM (inactive),2.96 µM (inactive),15.4 µM (inactive)
Cc1ccc(-n2cc(-c3ccc(Cl)cc3)c3c(N/N=C4\SCC(=O)N4C)ncnc32)cc1,9.14 µM (inactive),3.59 µM (inactive),18.3 µM (inactive),> 100 µM (inactive),59.3 µM,3.81 µM (inactive),20.7 µM (inactive),4.72 µM (inactive),6.65 µM (inactive),10.8 µM (inactive),3.44 µM (inactive),> 100 µM (inactive),4.23 µM (inactive),5.6 µM (inactive),3.31 µM (inactive),12.3 µM (inactive),12.9 µM (inactive),6.71 µM (inactive),4.78 µM (inactive),12 µM (inactive)
COc1ccc2c(c1)[nH]c1c(/C=C/c3ccccc3)nccc12,15.7 µM (inactive),19 µM (inactive),12.6 µM (inactive),17 µM (inactive),11.5 µM,14.8 µM (inactive),3.47 µM (inactive),14.9 µM (inactive),11 µM (inactive),13.6 µM (inactive),14.5 µM (inactive),19.1 µM (inactive),16.2 µM (inactive),14.2 µM (inactive),15.9 µM (inactive),10 µM (inactive),13.3 µM (inactive),14.1 µM (inactive),15.9 µM (inactive),13 µM (inactive)
COc1ccc2c(CC(=O)O)cc(=O)oc2c1,> 100 µM (inactive),> 100 µM (inactive),> 100 µM (inactive),> 100 µM (inactive),> 100 µM,> 100 µM (inactive),> 100 µM (inactive),> 100 µM (inactive),> 100 µM (inactive),> 100 µM (inactive),> 100 µM (inactive),> 100 µM (inactive),> 100 µM (inactive),> 100 µM (inactive),54.8 µM (inactive),> 100 µM (inactive),> 100 µM (inactive),> 100 µM (inactive),> 100 µM (inactive),> 100 µM (inactive)
O=C1Nc2ccc([N+](=O)[O-])cc2/C1=N/NC(=S)Nc1ccc([N+](=O)[O-])cc1,22.6 µM (inactive),51.9 µM (inactive),26.2 µM (inactive),18.7 µM (inactive),19 µM,15.8 µM (inactive),30.2 µM (inactive),21.1 µM (inactive),20.5 µM (inactive),22.9 µM (inactive),21.1 µM (inactive),26.7 µM (inactive),18.4 µM (inactive),32.3 µM (inactive),33.3 µM (inactive),26.7 µM (inactive),34.9 µM (inactive),23.7 µM (inactive),19.6 µM (inactive),29.4 µM (inactive)
